Drawing on patent publication US7388005B2, “Substituted 2-pyrimidinyl-6,7,8,9-tetrahydropyrimido[1,2-a]pyrimidin-4-one and 7-pyrimidinyl-2,3-dihydroimidazo [1,2-a]pyrimidin-5(1H)one derivatives for neurodegenerative disorders” (Sanofi-Aventis, priority 2001, dated 2008), this text covers IC50 for ten compounds.

pIC50: −log10 of the molar value.

One assay deals with GSK3β (Homo sapiens, UniProt P49841). The assay is described as follows: Inhibitory activity against GSK3β (TPK1), 33P-ATP phosphorylation of prephosphorylated GS1 peptide. Format: biochemical. The procedure:
Two different protocols can be used.
In a first protocol: 7.5 μM of prephosphorylated GS1 peptide and 10 μM ATP (containing 300,000 cpm of 33P-ATP) were incubated in 25 mM Tris-HCl, pH 7.5, 0.6 mM DTT, 6 mM MgCl2, 0.6 mM EGTA, 0.05 mg/ml BSA buffer for 1 hour at room temperature in the presence of GSK3β (total reaction volume: 100 microliters).
In a second protocol: 4.1 μM of prephosphorylated GS1 peptide and 42 μM ATP (containing 260,000 cpm 33P-ATP) were incubated in 80 mM Mes-NaOH, pH 6.5, 1 mM Mg acetate, 0.5 mM EGTA, 5 mM 2-mercaptoethanol, 0.02% Tween 20, 10% glycerol buffer for 2 hours at room temperature in the presence of GSK3β. Inhibitors were solubilised in DMSO (final solvent concentration in the reaction medium, 1%).
The reaction was stopped with 100 microliters of a solution made of 25 g polyphosphoric acid (85% P2O5), 126 ml 85% H3PO4, H2O to 500 ml and then diluted to 1:100 before use. An aliquot of the reaction mixture was then transferred to Whatman P81 cation exchange filters and rinsed with the solution described above. Incorporated 33P radioactivity was determined by liquid scintillation spectrometry.
The phosphorylated GS-1 peptide had the following sequence: NH2-[…](P)EDEE-COOH.
The GSK3β inhibitory activity of the compounds of the present invention are expressed in IC50, and as an illustration the range of IC50's of the compounds in table 1 is between 2 nanomolar to 2 micromolar concentrations, of the compounds in table 2 is between 30 nanomolar to 2 micromolar concentrations and of the compounds in table 3 is between 1 nanomolar to 2 micromolar concentrations.

For a further assay, the target named is cdk5/p25 (Homo sapiens, UniProt Q00535). The assay is described as follows: Inhibitory activity against cdk5/p25 (TPK2), 33P-ATP phosphorylation of Histone H1. Format: biochemical. The procedure: The following protocol may be used:
0.4 mg/ml Histone H1 and 10 μM ATP (containing 300,000 cpm of ^33P-ATP) were incubated in 50 mM Hepes, pH 7.2, 1 mM DTT, 1 mM MgCl2, 1 mM EGTA, 0.02% Tween 20 buffer for 1 hour at room temperature in the presence of cdk5/p25 (total reaction volume: 100 microliters).
Inhibitors were solubilised in DMSO (final solvent concentration in the reaction medium, 1%).
The reaction was stopped with 100 microliters of a solution of 25 g polyphosphoric acid (85% P2O5), 126 ml 85% H3PO4, H2O to 500 ml (diluted to 1:100 before use). An aliquot of the reaction mixture was then transferred to Whatman P81 cation exchange filters and rinsed with the solution described above. Incorporated ^33P radioactivity was determined by liquid scintillation spectrometry.
The cdk5/p25 inhibitory activity of the compounds of the present invention are expressed as IC50 values. Typically, 3-fold serial dilutions of the inhibitor over at least a 1000-fold concentration range are used.

Chain of cdk5/p25 (Q00535 whole entry, species assumed): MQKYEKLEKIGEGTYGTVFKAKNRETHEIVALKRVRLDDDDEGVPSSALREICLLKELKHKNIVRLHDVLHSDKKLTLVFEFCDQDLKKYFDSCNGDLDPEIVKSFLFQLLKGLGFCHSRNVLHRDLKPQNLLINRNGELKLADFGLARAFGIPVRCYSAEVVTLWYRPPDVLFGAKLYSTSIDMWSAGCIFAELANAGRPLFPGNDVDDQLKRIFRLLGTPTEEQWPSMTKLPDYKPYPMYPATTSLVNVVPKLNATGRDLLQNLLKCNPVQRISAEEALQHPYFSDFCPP
Chain of cdk5/p25 (Q15078 99-307 partner limits assumed, species assumed): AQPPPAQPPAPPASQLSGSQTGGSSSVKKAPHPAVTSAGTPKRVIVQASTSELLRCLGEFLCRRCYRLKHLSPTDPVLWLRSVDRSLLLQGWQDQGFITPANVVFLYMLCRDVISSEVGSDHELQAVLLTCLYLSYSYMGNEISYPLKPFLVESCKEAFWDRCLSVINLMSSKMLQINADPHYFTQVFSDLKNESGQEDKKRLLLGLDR
Chain of GSK3β (P49841 whole entry, species assumed): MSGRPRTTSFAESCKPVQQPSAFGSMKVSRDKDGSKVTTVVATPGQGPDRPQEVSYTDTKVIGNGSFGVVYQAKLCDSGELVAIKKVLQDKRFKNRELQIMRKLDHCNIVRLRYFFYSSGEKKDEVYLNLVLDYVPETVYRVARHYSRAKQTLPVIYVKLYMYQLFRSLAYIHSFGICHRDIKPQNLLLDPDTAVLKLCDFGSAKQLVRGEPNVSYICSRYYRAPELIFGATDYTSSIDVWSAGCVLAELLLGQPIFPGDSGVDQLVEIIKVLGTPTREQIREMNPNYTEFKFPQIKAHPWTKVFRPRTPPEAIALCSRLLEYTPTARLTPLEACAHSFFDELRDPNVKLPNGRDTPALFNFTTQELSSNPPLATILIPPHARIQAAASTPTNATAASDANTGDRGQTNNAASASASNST

A word on the pIC50: it is the IC50 on a negative log10 scale, so that one unit is a factor of ten. High values mean a low IC50, low ones a high IC50. As for `COc1cc(F)ccc1C(O)CN1CC(C)(C)Cn2c1nc(-c1ccncn1)cc2=O` (racemic) [Table 1 No. 69, 9-[2-(4-Fluoro-2-methoxy-phenyl)-2-hydroxy-ethyl]-7,7-dimethyl-2-(pyrimidin-4-yl)-6,7,8,9-tetrahydro-pyrimido[1,2-a]pyrimidin-4-one], the pIC50 was 8.40 at GSK3β and less than 6.00 against cdk5/p25.
Consider `O=c1cc(-c2ccncn2)nc2n1CCCN2C[C@@H](O)c1ccccc1` [Table 1 No. 9, 9-(2(S)-Hydroxy-2-phenyl-ethyl)-2-(pyrimidin-4-yl)-6,7,8,9-tetrahydro-pyrimido[1,2-a]pyrimidin-4-one], for which the pIC50 against GSK3β was 8.70; on cdk5/p25 it was 6.31.
For `CC1(C)CN(C[C@@H](O)c2ccccc2)c2nc(-c3ccncn3)cc(=O)n2C1` [Table 1 No. 19, 9-(2(S)-Hydroxy-2-phenyl-ethyl)-7,7-dimethyl-2-(pyrimidin-4-yl)-6,7,8,9-tetrahydro-pyrimido[1,2-a]pyrimidin-4-one], in that order: 8.10 and 6.42.
In the case of `Cc1c(-c2ccncn2)nc2n(c1=O)CCCN2CC(=O)c1ccccc1` [Table 1 No. 23, 3-Methyl-9-(2-oxo-2-phenyl-ethyl)-2-(pyrimidin-4-yl)-6,7,8,9-tetrahydro-pyrimido[1,2-a]pyrimidin-4-one], the pIC50 is 7.49 on GSK3β and 6.12 at cdk5/p25.
For `O=c1c(Cl)c(-c2ccncn2)nc2n1CCCN2C[C@@H](O)c1ccccc1` [Table 1 No. 24, 3-Chloro-9-(2(S)-hydroxy-2-phenyl-ethyl)-2-(pyrimidin-4-yl)-6,7,8,9-tetrahydro-pyrimido[1,2-a]pyrimidin-4-one], in that order: less than 7.00 and 6.08.
For `COc1ccccc1CCN1CC(C)(C)Cn2c1nc(-c1ccncn1)cc2=O` [Table 1 No. 47, 9-[2-(2-Methoxy-phenyl)-ethyl]-7,7-dimethyl-2-(pyrimidin-4-yl)-6,7,8,9-tetrahydro-pyrimido[1,2-a]pyrimidin-4-one], in that order: 8.30 and less than 6.00.
Regarding `COc1cc(F)ccc1CCN1CCCn2c1nc(-c1ccncn1)cc2=O` [Table 1 No. 91, 9-[2-(4-Fluoro-2-methoxy-phenyl)-ethyl]-2-(pyrimidin-4-yl)-6,7,8,9-tetrahydro-pyrimido[1,2-a]pyrimidin-4-one], the figures for the negative-log IC50 (pIC50) against GSK3β and against cdk5/p25 were 8.46 and less than 6.00, respectively.
Consider `CC1CCn2c(nc(-c3ccncn3)cc2=O)N1C[C@@H](O)c1ccccc1` (stereo partly drawn) [Table 3 No. 7, 9-[2(S)-Hydroxy-2-phenyl-ethyl]-8-methyl-2-(pyrimidin-4-yl)-6,7,8,9-tetrahydro-pyrimido[1,2-a]pyrimidin-4-one], for which the pIC50 on GSK3β is 7.92; on cdk5/p25, 6.08.
Regarding `CC1(C)CCn2c(nc(-c3ccncn3)cc2=O)N1C[C@@H](O)c1ccccc1` [Table 3 No. 11, 9-[2(S)-Hydroxy-2-phenyl-ethyl]-8,8-dimethyl-2-(pyrimidin-4-yl)-6,7,8,9-tetrahydro-pyrimido[1,2-a]pyrimidin-4-one], the pIC50 is 8.40 against GSK3β and 5.93 against cdk5/p25.
With `CC1(C)CCn2c(nc(-c3ccncn3)cc2=O)N1C[C@@H](O)c1ccc(Cl)cc1` [Table 3 No. 35, 9-[2-(4-Chloro-phenyl)-2(S)-hydroxy-ethyl]-8,8-dimethyl-2-(pyrimidin-4-yl)-6,7,8,9-tetrahydro-pyrimido[1,2-a]pyrimidin-4-one], the pIC50 at GSK3β is 8.70; on cdk5/p25, less than 6.00.
